One experiment has as its target T1, AdipoR1 (Mus musculus, UniProt Q91VH1).
T1 construct: C2C12 cells (ATCC; CRL-1772, medium; host or cells: differentiated C2C12
T1 sequence (Q91VH1 1-375): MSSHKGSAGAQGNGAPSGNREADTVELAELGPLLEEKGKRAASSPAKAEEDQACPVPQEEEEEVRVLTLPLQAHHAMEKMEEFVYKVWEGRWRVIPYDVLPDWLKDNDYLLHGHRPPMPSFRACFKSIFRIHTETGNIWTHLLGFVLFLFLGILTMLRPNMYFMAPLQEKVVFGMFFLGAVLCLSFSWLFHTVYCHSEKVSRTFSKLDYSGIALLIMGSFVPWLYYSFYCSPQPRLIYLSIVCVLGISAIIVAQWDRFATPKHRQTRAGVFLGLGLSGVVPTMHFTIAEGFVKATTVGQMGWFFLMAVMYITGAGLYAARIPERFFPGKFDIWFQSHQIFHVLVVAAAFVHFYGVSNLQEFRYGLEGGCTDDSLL
Kind of experiment: Measurement of AMPK phosphorylation ability (Assay 1), differentiated C2C12 cells, Western blotting. The settings on record: 10 μM, 10 minutes. It is filed as cell-based. The method in brief: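 Differentiated mouse C2C12 myotubes (2.5% horse serum) starved and then treated with compound at 10 μM for 10 min. Phospho-AMPKα (Thr172) and total AMPKα measured by Western blot with ECL, band densitometry.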
On the technique in general: Immunoblotting shows a protein as a band on a membrane.

For the next experiment, the system named is rhodopsin receptor. Nature of the experiment: Surface plasmon resonance, rhodopsin receptor control. It is filed as binding. Conditions: SPR. (Surface plasmon resonance follows binding to a sensor surface in real time, without labels.)
Another experiment relates to Lepr−/− (db/db) mice. Kind of experiment: Anti-diabetic effects in db/db mice. It is filed as in vivo. On the procedure: Mice were 6-10 week of age at the time of the experiment. They were housed in cages and maintained on a 12 hr light-dark cycle.
Male Lepr^−/− (aged 6-10 week) were purchased from Jackson Laboratory. When the mice in the same genotype received different treatments, they were randomly assigned to treatment groups.
Plasma glucose levels were determined by using a glucose B-test (Wako Pure Chemical Industries). Plasma insulin was measured with an insulin immunoassay (Shibayagi). Plasma NEFAs (Wako Pure Chemical Industries) were assayed by enzymatic methods.
The oral glucose tolerance test (OGTT) and insulin tolerance test (ITT) were conducted as previously described^a,b with slight modifications. The areas of the glucose and insulin curves were calculated by multiplying the cumulative mean height of the glucose values (1 mg/ml=1 cm) and insulin values (1 ng/ml=1 cm), respectively, by time (60 min=1 cm)^c,a. The insulin resistance index was calculated from the product of the areas of glucose and insulin×10^−2 in the glucose tolerance test. The results are expressed as the percentage of the value respect to control littermates.

In another experiment the test system is db/db mice. Kind of experiment: Lifespan of db/db mice on a HF diet. The settings on record: daily dose of 30 mg kg−1 body weight. The class given is in vivo. On the procedure:
Because the HF diet has been reported to shorten the lifespan, we examined whether orally administered AdipoRon could prolong the shortened lifespan due to a HF diet or not.
That is, the db/db mice were randomly divided into 3 groups: a normal chow group (Normal chow, n=20), high-fat group (High-fat, n=20) and high-fat and additionally AdipoRon group (High-fat+AdipoRon, n=20), which were treated with AdipoRon at a daily dose of 30 mg kg^−1 body weight. The survival rate was recorded daily.

Regarding `O=C(COc1ccc(C(=O)c2ccccc2)cc1)NC1CCN(Cc2ccccc2)CC1` [Compound 73, 2-(4-benzoyl-phenoxy)-N-(1-benzylpiperidin-4-yl)acetamide], at AdipoR1, the “pAMPK/AMPK (%)” value came out at 84.33%. Besides, the “reaction with rhodopsin receptor (control)” value in the experiment on rhodopsin receptor is “does not react a rhodopsin receptor at all”. In addition, the plasma glucose level result in the experiment on Lepr−/− (db/db) mice (oral 50 mg/kg body weight) was “decreased plasma glucose level”. Moreover, the “glucose intolerance, insulin resistance and dyslipidemia” value with Lepr−/− (db/db) mice (oral, 2 weeks) is “significantly ameliorated”. Further, the lifespan result in the experiment with db/db mice is “significantly rescued the shortened lifespan”.

The values are drawn from patent US20170298051A1, “ACTIVATOR OF ADIPONECTIN RECEPTOR” (THE UNIVERSITY OF TOKYO, priority 2013, published 2017).
